According to US10011611B2, “Histone deacetylase inhibitors and methods for use thereof” (Reaction Biology Corp., priority 2015, dated 2018):

Legend:
Human HDAC5 = Human HDAC5 (Homo sapiens (Human), UniProt Q9UQL6); test: HDAC5 biochemical fluorescent activity assay
Human HDAC8 = Human HDAC8 (Homo sapiens (Human), UniProt Q9BY41); test: HDAC8 biochemical fluorescent activity assay; settings: substrate Arg-His-Lys(Ac)-Lys(Ac)
Human HDAC2 = Human HDAC2 (Homo sapiens (Human), UniProt Q92769); test: HDAC2 biochemical fluorescent activity assay; settings: substrate Arg-His-Lys-Lys(Ac)
Sequence of Human HDAC2 (Q92769 whole entry): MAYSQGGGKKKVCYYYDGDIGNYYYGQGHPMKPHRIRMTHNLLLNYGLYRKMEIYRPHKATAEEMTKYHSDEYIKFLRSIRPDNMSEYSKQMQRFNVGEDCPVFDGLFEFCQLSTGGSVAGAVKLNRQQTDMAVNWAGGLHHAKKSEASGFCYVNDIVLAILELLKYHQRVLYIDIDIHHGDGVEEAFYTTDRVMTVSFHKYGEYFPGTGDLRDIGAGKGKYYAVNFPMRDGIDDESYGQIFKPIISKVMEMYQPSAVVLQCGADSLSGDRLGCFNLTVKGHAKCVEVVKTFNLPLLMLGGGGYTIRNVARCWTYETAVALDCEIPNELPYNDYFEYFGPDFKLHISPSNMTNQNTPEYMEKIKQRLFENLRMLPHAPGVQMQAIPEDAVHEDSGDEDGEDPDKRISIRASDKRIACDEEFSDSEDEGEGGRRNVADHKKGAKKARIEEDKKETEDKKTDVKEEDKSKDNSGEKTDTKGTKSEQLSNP

Human HDAC10 = Human HDAC10 (Homo sapiens (Human), UniProt Q969S8); test: HDAC10 biochemical fluorescent activity assay; settings: substrate Arg-His-Lys-Lys(Ac)
Sequence of Human HDAC10 (Q969S8 1-481): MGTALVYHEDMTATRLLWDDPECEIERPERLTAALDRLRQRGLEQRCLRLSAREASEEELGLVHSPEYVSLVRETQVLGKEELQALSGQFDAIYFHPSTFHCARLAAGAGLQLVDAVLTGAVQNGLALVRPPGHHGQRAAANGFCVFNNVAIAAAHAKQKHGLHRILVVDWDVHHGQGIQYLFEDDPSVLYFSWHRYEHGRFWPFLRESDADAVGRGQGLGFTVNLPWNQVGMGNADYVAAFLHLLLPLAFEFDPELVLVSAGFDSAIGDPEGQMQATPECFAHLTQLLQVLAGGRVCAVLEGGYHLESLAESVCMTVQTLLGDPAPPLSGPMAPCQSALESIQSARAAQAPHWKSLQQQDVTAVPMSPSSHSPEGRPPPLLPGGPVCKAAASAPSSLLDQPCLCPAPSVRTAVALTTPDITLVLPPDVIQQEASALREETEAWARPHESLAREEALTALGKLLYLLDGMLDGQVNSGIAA

Human HDAC11 = Human HDAC11 (Homo sapiens (Human), UniProt Q96DB2); test: HDAC11 biochemical fluorescent activity assay; settings: substrate Arg-His-Lys-Lys(Ac)
Sequence of Human HDAC11 (Q96DB2 whole entry): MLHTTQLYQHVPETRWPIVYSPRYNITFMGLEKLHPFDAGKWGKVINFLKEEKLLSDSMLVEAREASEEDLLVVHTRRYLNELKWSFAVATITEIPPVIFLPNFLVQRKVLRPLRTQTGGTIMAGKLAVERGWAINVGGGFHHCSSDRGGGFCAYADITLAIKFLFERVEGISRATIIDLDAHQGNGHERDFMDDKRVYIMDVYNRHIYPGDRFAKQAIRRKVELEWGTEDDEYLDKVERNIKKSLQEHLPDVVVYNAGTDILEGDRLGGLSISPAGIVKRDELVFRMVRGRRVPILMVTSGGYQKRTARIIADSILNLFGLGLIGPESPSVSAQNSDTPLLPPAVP

Human HDAC1 = Human HDAC1 (Homo sapiens (Human), UniProt Q13547); test: HDAC1 biochemical fluorescent activity assay; settings: substrate Arg-His-Lys-Lys(Ac)
Sequence of Human HDAC1 (Q13547 whole entry): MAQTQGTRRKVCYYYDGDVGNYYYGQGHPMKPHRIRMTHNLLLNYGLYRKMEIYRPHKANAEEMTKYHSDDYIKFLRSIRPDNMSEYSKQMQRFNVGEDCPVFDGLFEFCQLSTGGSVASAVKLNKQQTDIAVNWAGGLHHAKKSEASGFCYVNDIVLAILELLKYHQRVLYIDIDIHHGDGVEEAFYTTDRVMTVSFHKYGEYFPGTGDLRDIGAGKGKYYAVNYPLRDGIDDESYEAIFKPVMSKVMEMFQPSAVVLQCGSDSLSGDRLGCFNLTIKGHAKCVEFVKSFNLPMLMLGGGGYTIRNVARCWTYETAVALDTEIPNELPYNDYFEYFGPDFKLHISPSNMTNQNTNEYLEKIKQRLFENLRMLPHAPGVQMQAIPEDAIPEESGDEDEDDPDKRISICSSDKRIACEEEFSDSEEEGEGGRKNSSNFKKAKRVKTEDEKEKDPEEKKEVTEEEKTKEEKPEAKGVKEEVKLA

Recombinant human HDAC6 = Recombinant human HDAC6 (Homo sapiens (Human), UniProt Q9UBN7); test: HDAC6 biochemical fluorescent activity assay; settings: substrate Arg-His-Lys-Lys(Ac)
Sequence of Recombinant human HDAC6 (Q9UBN7 whole entry): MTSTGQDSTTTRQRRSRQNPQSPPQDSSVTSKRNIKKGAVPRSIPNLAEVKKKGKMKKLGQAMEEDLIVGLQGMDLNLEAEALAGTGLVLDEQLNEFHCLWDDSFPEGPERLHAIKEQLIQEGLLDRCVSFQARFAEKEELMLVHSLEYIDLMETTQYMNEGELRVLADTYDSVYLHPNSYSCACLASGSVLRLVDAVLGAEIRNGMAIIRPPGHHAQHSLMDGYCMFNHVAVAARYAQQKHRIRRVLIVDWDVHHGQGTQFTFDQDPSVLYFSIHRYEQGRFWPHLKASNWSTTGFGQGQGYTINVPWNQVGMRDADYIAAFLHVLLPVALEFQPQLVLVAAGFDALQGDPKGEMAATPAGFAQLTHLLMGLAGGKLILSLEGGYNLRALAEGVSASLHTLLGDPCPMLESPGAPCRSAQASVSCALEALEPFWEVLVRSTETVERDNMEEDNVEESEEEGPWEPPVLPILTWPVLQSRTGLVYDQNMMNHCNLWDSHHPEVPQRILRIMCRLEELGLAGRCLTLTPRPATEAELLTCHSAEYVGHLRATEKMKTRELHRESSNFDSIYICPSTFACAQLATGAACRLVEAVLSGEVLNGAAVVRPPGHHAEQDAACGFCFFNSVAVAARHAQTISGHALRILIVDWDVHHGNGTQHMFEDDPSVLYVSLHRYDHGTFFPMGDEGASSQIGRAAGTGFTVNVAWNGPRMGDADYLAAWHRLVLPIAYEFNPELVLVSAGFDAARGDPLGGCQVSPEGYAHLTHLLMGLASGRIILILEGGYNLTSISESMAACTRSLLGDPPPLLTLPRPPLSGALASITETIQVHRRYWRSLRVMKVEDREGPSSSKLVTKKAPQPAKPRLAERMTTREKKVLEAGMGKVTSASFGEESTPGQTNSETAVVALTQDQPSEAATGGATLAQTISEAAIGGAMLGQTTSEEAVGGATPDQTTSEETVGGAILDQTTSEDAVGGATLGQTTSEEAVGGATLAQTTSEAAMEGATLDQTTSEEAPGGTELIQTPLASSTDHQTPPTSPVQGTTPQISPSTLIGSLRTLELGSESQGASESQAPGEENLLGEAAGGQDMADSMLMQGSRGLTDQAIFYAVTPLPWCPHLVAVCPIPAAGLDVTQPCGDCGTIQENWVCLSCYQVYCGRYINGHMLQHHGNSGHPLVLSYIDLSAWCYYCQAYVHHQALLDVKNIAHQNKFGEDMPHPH

Sequence of Human HDAC8 (Q9BY41 whole entry): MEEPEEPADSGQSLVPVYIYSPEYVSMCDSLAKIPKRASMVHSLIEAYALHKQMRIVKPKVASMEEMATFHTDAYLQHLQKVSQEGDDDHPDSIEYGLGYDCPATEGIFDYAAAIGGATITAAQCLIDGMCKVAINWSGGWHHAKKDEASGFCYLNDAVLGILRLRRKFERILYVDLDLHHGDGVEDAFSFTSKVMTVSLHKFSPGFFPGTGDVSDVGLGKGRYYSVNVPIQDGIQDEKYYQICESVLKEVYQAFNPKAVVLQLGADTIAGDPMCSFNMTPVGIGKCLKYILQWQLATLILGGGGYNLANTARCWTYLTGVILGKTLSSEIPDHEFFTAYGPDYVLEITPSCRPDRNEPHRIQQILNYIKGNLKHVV
Sequence of Human HDAC5 (Q9UQL6 whole entry): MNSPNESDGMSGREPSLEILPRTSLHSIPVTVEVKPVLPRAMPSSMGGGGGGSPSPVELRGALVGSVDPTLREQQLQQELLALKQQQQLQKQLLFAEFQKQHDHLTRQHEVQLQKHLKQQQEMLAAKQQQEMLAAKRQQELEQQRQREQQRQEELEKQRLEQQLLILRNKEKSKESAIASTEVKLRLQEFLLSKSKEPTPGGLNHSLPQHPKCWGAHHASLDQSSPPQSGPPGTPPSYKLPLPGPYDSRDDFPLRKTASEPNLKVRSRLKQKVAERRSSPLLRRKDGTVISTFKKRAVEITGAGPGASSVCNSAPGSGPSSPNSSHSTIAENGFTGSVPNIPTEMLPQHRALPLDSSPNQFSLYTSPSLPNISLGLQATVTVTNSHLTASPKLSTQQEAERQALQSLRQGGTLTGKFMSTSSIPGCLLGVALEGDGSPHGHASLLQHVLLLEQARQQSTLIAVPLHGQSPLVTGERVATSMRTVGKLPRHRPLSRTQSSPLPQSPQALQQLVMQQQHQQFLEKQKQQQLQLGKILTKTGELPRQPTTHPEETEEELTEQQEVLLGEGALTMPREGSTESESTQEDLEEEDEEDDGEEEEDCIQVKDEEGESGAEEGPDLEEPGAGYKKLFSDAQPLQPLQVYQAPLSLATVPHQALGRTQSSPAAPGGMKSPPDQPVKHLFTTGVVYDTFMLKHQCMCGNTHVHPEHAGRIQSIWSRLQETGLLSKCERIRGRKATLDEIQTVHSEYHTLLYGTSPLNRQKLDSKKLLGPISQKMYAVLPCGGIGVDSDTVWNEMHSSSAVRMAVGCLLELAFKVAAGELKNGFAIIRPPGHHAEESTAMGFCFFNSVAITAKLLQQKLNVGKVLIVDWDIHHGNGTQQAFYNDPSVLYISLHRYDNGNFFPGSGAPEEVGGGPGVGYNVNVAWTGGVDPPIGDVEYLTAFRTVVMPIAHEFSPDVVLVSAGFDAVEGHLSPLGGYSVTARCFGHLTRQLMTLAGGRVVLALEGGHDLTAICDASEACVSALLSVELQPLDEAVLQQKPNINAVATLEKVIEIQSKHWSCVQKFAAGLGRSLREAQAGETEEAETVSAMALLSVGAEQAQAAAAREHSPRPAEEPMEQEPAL

IC50 (Human HDAC5): 508 nM | IC50 (Human HDAC8): 27.1 nM | IC50 (Human HDAC2): 5400 nM | IC50 (Human HDAC10): 4260 nM | IC50 (Human HDAC11): 2840 nM | IC50 (Human HDAC1): 175 nM | IC50 (Recombinant human HDAC6): 0.958 nM
Structure (SMILES): O=C(NO)c1ccc(Cn2sc3ncccc3c2=O)cc1 [RBC-3001-A, N-hydroxy-4-((3-oxoisothiazolo[5,4-b]pyridin-2(3H)-yl)methyl)benzamide]
